Measured values as given in patent US20220127232A1, “HISTONE ACETYLTRANSFERASE MODULATORS AND COMPOSITIONS AND USES THEREOF” (The Trustees of Columbia University in the City of New York, priority 2019, published 2022).
Structures can show the parent of a compound that is named as a salt. Where two headings read alike, the source gives them in different places.

What was measured:
p300 = p300 (Homo sapiens, UniProt Q09472); assay: Histone Acetyltransferase (HAT) in vitro acetylation assay, western blot of H3K27ac / H3K18ac; type: biochemical; conditions: for EC50 / H3-Lys 18 EC50 / H3-Lys 27 EC50: EC50 for activators; for H3-Lys 18 IC50 / H3-Lys 27 IC50: IC50 for inhibitors
p300, sequence (Q09472 whole entry, species assumed): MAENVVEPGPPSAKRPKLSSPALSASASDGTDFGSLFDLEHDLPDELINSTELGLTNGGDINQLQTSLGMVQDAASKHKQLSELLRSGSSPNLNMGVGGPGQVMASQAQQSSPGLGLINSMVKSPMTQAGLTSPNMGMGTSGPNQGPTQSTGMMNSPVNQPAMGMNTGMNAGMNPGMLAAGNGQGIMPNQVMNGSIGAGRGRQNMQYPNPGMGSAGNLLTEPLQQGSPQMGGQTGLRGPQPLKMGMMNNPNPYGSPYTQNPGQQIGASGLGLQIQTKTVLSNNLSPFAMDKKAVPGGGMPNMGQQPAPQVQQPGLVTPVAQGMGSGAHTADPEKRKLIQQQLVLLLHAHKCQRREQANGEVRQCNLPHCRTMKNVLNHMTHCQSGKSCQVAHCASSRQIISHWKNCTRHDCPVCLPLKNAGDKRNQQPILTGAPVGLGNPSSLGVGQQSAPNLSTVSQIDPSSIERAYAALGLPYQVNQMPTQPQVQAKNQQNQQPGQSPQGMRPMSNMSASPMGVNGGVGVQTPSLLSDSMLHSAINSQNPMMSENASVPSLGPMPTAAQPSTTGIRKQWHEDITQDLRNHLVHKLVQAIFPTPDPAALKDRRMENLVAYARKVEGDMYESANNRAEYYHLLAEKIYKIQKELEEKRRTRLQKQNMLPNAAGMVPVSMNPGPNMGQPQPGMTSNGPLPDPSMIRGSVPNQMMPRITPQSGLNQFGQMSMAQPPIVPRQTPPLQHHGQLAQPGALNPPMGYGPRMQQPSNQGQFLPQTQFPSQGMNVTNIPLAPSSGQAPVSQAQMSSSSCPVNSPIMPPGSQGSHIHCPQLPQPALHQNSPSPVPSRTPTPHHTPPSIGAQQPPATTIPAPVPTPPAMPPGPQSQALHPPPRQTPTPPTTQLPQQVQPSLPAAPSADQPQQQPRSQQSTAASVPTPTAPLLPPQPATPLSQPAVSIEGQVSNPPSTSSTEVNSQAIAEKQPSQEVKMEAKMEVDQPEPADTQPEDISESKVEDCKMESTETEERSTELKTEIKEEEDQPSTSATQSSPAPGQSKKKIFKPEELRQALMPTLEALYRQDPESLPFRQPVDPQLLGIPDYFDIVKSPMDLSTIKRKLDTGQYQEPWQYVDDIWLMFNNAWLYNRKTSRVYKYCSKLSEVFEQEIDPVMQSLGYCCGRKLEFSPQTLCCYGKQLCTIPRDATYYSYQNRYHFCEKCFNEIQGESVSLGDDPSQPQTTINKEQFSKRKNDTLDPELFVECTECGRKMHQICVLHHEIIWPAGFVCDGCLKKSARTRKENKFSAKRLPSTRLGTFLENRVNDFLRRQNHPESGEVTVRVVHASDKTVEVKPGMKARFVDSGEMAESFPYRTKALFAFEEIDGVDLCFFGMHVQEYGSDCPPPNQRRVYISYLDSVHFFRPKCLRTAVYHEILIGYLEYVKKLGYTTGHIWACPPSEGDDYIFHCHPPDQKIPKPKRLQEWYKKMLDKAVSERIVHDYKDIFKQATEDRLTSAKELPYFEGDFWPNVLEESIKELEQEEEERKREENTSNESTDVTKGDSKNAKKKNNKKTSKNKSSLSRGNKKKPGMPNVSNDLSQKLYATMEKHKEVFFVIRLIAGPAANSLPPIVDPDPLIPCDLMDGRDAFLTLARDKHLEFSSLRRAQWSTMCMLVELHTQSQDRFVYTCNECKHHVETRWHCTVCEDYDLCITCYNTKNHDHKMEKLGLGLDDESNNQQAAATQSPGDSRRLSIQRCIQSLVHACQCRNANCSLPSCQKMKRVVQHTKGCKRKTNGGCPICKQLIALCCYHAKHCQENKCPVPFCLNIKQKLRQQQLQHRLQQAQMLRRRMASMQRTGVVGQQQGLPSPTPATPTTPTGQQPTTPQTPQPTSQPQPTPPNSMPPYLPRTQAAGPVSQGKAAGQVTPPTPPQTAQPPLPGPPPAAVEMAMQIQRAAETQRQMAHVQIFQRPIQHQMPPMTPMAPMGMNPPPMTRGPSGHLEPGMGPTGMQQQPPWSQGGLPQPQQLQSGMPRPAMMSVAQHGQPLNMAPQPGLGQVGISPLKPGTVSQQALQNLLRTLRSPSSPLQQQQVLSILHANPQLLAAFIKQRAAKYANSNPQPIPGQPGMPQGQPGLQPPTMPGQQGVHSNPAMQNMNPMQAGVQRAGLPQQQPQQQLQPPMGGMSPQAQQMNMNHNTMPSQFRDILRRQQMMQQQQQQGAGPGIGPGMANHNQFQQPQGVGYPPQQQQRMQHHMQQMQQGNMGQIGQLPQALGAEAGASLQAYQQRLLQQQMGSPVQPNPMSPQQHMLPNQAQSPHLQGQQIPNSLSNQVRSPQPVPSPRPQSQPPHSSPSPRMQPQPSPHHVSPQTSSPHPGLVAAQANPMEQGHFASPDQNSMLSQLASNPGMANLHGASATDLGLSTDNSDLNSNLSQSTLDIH
Procedure: The aim of the in vitro acetylation assay is to measure the enzymatic activity of the various compounds towards p300.
First, the drug is prepared:
Second, dilute p300 in AM1 buffer to a concentration of 40 ng/μL (final concentration in the reaction 20 ng/μL). This is accomplished by diluting 1 μL of p300 (at 0.4 μg/μL) into […] of AM1 buffer.
Third, prepare the Master Mix. Prepare the Master Mix in low protein binding tubes (ThermoFisher Cat. No. 90410), 20 μL system.
Incubate reactions at 30° C. for 30 minutes.
Incubate reactions at 30° C. for 1 hour.
Fourth, perform the western blot assay. • Add 6.7 μL of Laemmli Sample Buffer 4× (Bio-Rad Laboratories Cat. No. 161-0737) for each reaction and boil samples at 95° C. for 5 min. • Charge 10 μL for each sample in 2 Tris Glycine 4-15% gels (Bio-Rad Laboratories Cat. No. 456-1086). Running Buffer: Tris-Glycine 1× (pour in the cell up to the writing “2 gels”). • Run at 90 V for 1 hour (until the gel front reaches the green line of cell). • Semi-dry transfer with Trans-Blot® Turbo™ Blotting System from Bio-Rad Laboratories (Trans-Blot® Turbo™ RTA midi PVDF transfer kit Cat. No1704275). • Activate PVDF membrane in methanol for 5 minutes and then wet in Trans-Blot® Turbo™ transfer buffer. • Wet stacks in transfer buffer. • Transfer at 23 V 1.3 A for 7 minutes. • Blocking buffer: 5% Non-Fat milk in TBST (tween 0.1%) 1 hour at room temperature. • Cut the membranes to get Ac-His 3 at 17 kDa and p300 at 300 kDa. • Incubate with primary antibodies overnight at 4° C. • The day after, make 3 washes in TBST (Tween 0.1%) of 10 minutes. • Incubate with secondary antibody at room temperature for 1 hour. • Make 3 washes in TBST (Tween 0.1%) of 5 minutes. • Incubate membranes with ECL (SuperSignal West Dura Extended Duration Substrate from ThermoFisher) for 5 minutes at room temperature. • Acquire the image with ChemiDoc Odyssey Fc 2 minutes.
To detect total H3 (loading control), strip the membranes with Restore™ Western Blot Stripping Buffer according to the manufacturer protocol.
Various compounds were tested for enzymatic activity with respect to Lys 18 and Lys 27. EC50 is indicated for Activators and IC50 for inhibitors respectively.
FIGS. 1A to 25B are graphs showing the lysine residue acetylation as a function of concentration for the compounds set forth in Table 3. The shaded area corresponds to the average values of lysine residue acetylation (continuous line) and their standard error range measured in the absence of compound and DMSO. The number of replicates is represented by “n”.

[1] = Stability in human liver microsomes; type: in vitro ADME; conditions: for microsomal CLint at 1 μM / half-life at 1 μM: both sexes, human, liver microsomes, pH 7.4, human liver microsomes
Procedure: Some compounds were tested for stability in human liver microsomes as shown below in Table 2.
Mixed-gender human liver microsomes (Lot #1010420) were purchased from XenoTech. The reaction mixture, minus NADPH, was prepared as described below. The test article was added into the reaction mixture at a final concentration of 1 μM. The control compound, testosterone, was run simultaneously with the test article in a separate reaction. An aliquot of the reaction mixture (without cofactor) was equilibrated in a shaking water bath at 37° C. for 3 minutes. The reaction was initiated by the addition of the cofactor, and the mixture was incubated in a shaking water bath at 37° C. Aliquots (100 μL) were withdrawn at 0, 10, 20, 30, and 60 minutes. Test article and testosterone samples were immediately combined with 400 μL of ice-cold 50/50 acetonitrile (ACN)/H2O containing 0.1% formic acid and internal standard to terminate the reaction. The samples were then mixed and centrifuged to precipitate proteins. All samples were assayed by LC-MS/MS using electrospray ionization. Analytical conditions are outlined in Appendix 1. The peak area response ratio (PARR) to internal standard was compared to the PARR at time 0 to determine the percent remaining at each time point. Half-lives and clearance were calculated using GraphPad software, fitting to a single-phase exponential decay equation.
Liver Microsomes 0.5 mg/mL NADPH (cofactor) 1 mM
Potassium Phosphate, pH 7.4 100 mM
Intrinsic clearance (CLint) was calculated based on CLint=k/P, where k is the elimination constant and P is the protein concentration in the incubation.

[2] = compound in DMSO, read-out: H3-Lys 18 EC50
[3] = compound in DMSO, read-out: H3-Lys 27 EC50

Row | SMILES | H3-Lys 18 EC50 (p300; compound in DMSO) | H3-Lys 27 EC50 (p300; compound in DMSO) | H3-Lys 18 IC50 (p300; compound in DMSO) | H3-Lys 27 IC50 (p300; compound in DMSO) | other results
1 | CCOc1cccc(OCC)c1C(=O)Nc1ccc(Cl)c(C(F)(F)F)c1 [RA010171] |  |  |  |  | EC50 (p300; [2]): 141 nM
2 | CCCOc1cccc(O)c1C(=O)Nc1ccc(Cl)c(C(F)(F)F)c1 [RA013931] | NO ACTIVITY | NO ACTIVITY | NO ACTIVITY | NO ACTIVITY | 
3 | CCOc1cccc(O)c1C(=O)Nc1cccc(C(F)(F)F)c1 [RA010160] |  |  |  |  | EC50 (p300; [2]): 146 nM; EC50 (p300; [3]): 533 nM
4 | COc1cccc(OCCN(C)C)c1C(=O)Nc1ccc(Cl)c(C(F)(F)F)c1 [RA010900 HCl] | NO ACTIVITY | NO ACTIVITY | NO ACTIVITY | NO ACTIVITY | EC50 (p300; compound in H2O, read-out: H3-Lys 18 EC50): 117 nM; EC50 (p300; compound in H2O, read-out: H3-Lys 27 EC50): 44 nM
5 | CCOc1cccc(OCCO)c1C(=O)Nc1ccc(Cl)c(C(F)(F)F)c1 [RA010146] | NO ACTIVITY | NO ACTIVITY | NO ACTIVITY | NO ACTIVITY | 
6 | CCOc1ccnc(OCCN(C)C)c1C(=O)Nc1ccc(Cl)c(C(F)(F)F)c1 [RA013005] |  |  |  |  | EC50 (p300; [2]): 76.5 nM; EC50 (p300; [3]): 594 nM; microsomal CLint at 1 μM ([1]; calculated value printed in parentheses behind the bound, read-out: CLint, value in parentheses): 188 µL/min/mg; half-life at 1 μM ([1]; fitted value printed in parentheses behind the bound, read-out: Half-life, value in parentheses): 7.36 min; microsomal CLint at 1 μM ([1]; read-out: CLint): > 139 µL/min/mg; half-life at 1 μM ([1]; read-out: Half-life): < 10 min; % Remaining of Initial (n = 1) 0 min ([1]; human liver microsomes, test article 1 μM, 0 min): 100%; % Remaining of Initial (n = 1) 10 min ([1]; human liver microsomes, test article 1 μM, 10 min): 40.5%; % Remaining of Initial (n = 1) 20 min ([1]; human liver microsomes, test article 1 μM, 20 min): 14.1%; % Remaining of Initial (n = 1) 30 min ([1]; human liver microsomes, test article 1 μM, 30 min): 4.97%; % Remaining of Initial (n = 1) 60 min ([1]; human liver microsomes, test article 1 μM, 60 min): <1.00%
7 | CCOc1cccc(OCCN(C)C)c1NC(=O)c1ccc(Cl)c(C(F)(F)F)c1 [RA013919] |  | NO ACTIVITY |  | NO ACTIVITY | 
8 | CCOc1cccc(OCCOC)c1C(=O)Nc1ccc(Cl)c(C(F)(F)F)c1 [RA010155] |  | NO ACTIVITY |  | NO ACTIVITY | EC50 (p300; [2]): 129 nM
9 | CCOc1cccc(OCCN(C)C)c1C(=O)Nc1cccc(C(F)(F)F)c1 [RA010168] |  | NO ACTIVITY |  | NO ACTIVITY | 
10 | CCOc1ccccc1C(=O)N(CCN(C)C)c1ccc(Cl)c(C(F)(F)F)c1 [RA013886] | NO ACTIVITY | NO ACTIVITY | NO ACTIVITY | NO ACTIVITY | 
11 | CC(C)Oc1cccc(OCCN(C)C)c1C(=O)Nc1ccc(Cl)c(C(F)(F)F)c1 [RA010143 HCl] |  | NO ACTIVITY |  | NO ACTIVITY | 
12 | CN(C)CCOc1cccc(F)c1C(=O)Nc1ccc(Cl)c(C(F)(F)F)c1 [RA010162] | NO ACTIVITY | NO ACTIVITY | NO ACTIVITY | NO ACTIVITY | 
13 | CCOc1cccc(OCCN(C)C)c1C(=O)Nc1cccc(C(F)(F)F)c1 [RA013928] | NO ACTIVITY |  | NO ACTIVITY |  | 
14 | CCOc1cccc(OCCNC)c1C(=O)Nc1ccc(Cl)c(C(F)(F)F)c1 [RA013894] | NO ACTIVITY | NO ACTIVITY | NO ACTIVITY | NO ACTIVITY | 
15 | CN(C)CCOc1cccc(O)c1C(=O)Nc1ccc(Cl)c(C(F)(F)F)c1 [RA013905] | NO ACTIVITY | NO ACTIVITY | NO ACTIVITY | NO ACTIVITY | 
16 | CCOc1cccc(N(C)CCN(C)C)c1C(=O)Nc1ccc(Cl)c(C(F)(F)F)c1 [RA010163] | NO ACTIVITY | NO ACTIVITY | NO ACTIVITY | NO ACTIVITY | 
17 | CCOc1cccc(OCCN(C)C)c1C(=O)Nc1ccc(Cl)cn1 [RA013917] | NO ACTIVITY |  |  |  | EC50 (p300; [3]): 15.9 nM
18 | CCCOc1cccc(OCCN(C)C)c1C(=O)Nc1ccc(Cl)c(C(F)(F)F)c1 [RA013938] | NO ACTIVITY | NO ACTIVITY | NO ACTIVITY | NO ACTIVITY | 
19 | CCOc1cccc(OCCN(C)C)c1-c1nc2cc(Cl)c(C(F)(F)F)cc2[nH]1 [RA013012] | NO ACTIVITY | NO ACTIVITY | NO ACTIVITY | NO ACTIVITY | 
